Measurements reported in patent US20240368230A1, “CELL-PENETRATING PEPTIDES COMPRISING MULTIPLE 5-MER ALPHA-HELIX FRAGMENTS AND USES THEREOF” (ArtProBio Co., Ltd., priority 2023, published 2024).
Blank lines part the entries; values can stand above or below the compound they belong to. Where a SMILES comes first, the peptide text is derived from it. Where no end group is shown, it is not given here. [ ]: non-standard residue; d: D form. Aib = CC(C)(N)C(=O)O

Assays:
[1] = CD spectroscopy of cell-penetrating peptides (helicity); details: for helicity ([θ]222/[θ]208): CD spectra; for secondary structure / helix stabilization by CD: 10 mM potassium phosphate, pH 7.4, 20° C.
Experimental: The concentration of peptides/proteins was 5-20 μM in general. Spectra were obtained using a Jasco J-1500 CD spectrometer (JASCO, Japan) or a Chirascan CD spectrometer (Applied Photophysics, UK). Scanning was carried out using a cuvette with a path length of 1 mm. MRE (mean residue ellipticity) was calculated per amino acid residue.
The cell-penetrating peptides (CPP1 TO 13 and CPP11d) were dissolved respectively in 10 mM potassium phosphate. The analysis was performed under the condition of pH 7.4 and 20° C.

BALB/c nude mice = assay: In-vivo fluorescence imaging (IVIS) of living mice, targeting; details: FAM-labeled, IV 5 mg/kg, 4 hours; for in-vivo targeting site: 200 μL; for bioaccumulation / targeting activity in the body: comparison with existing CPPs
Experimental: All animal experimental procedures including sample administration and euthanasia were performed in accordance with the strict guidelines of the Yonsei University Health System Institutional Animal Care and Use Committee. Female 7-week BALB/c nude mice were purchased from Orient Bio Company (Korea). Fluorescence-labeled peptide (sample) (10 mg/kg) was injected via the lateral tail vein of the mice. Fluorescence images were acquired at different times (0, 4, 8 and 12 hours) using an in-vivo imaging system (IVIS; PerkinElmer, USA) and the images were analyzed with the Living Image software (PerkinElmer).
Female 7-week-old BALB/c nude mice were injected IV (intravenously) with the cell-penetrating peptide prepared in Example 10 (CPP10) at 10 mg/kg or 1 mg/kg via the lateral tail vein and imaged using IVIS (in-vivo imaging system) (PerkinElmer, USA) 4 hours later. The images were analyzed with the Living Image software (PerkinElmer). The mice were analyzed from the top, bottom (belly) and side positions (FIG. 44A). Then, after administering the same volume of the cell-penetrating peptide prepared in Example 10 (CPP10) at 10 mg/kg via IV (intravenous) or IP (intraperitoneal) injection, the mice were imaged 4 hours later (FIG. 44B).
Next, female 7-week-old BALB/c nude mice were injected IV (intravenously) with the cell-penetrating peptide of Example 10 (CPP10), the cell-penetrating peptide of Example 11 (CPP11) or the cell-penetrating peptide of Example 14 (CPP11d) at 10 mg/kg via the lateral tail vein, and they were imaged 30 minutes and 6 hours later using IVIS (in-vivo imaging system) (PerkinElmer, USA). The images were analyzed with the Living Image software (PerkinElmer) (FIG. 44C). In FIGS. 44A and 44B, the cell-penetrating peptides were labeled with TAMRA (5 (6)-carboxytetramethylrhodamine). In FIG. 44C, the cell-penetrating peptides were labeled with FAM.
The images were analyzed with the Living Image software (PerkinElmer) (FIGS. 50 and 51).
The cell-penetrating peptide prepared in Example 11 (CPP11) was also administered at the same concentration and then analyzed by IVIS 1 hour later (FIG. 51). The cell-penetrating peptide was used after labeling with FAM.
4 hours later, the mice were imaged using IVIS (in-vivo imaging system) (PerkinElmer, USA) and the images were analyzed with the Living Image software (PerkinElmer) (FIG. 53).
The cell-penetrating peptide prepared in Example 11 (CPP11) was also administered at the same concentration and then analyzed by IVIS 1 hour later (FIG. 53). The cell-penetrating peptide was used after labeling with FAM.
Female 7-week-old BALB/c nude mice were injected IV (intravenously) with 200 μL of the cell-penetrating peptide of Example 11 (CPP11) or the existing cell-penetrating peptides (Rev ARM, Tat, penetratin and R8) at 5 mg/kg via the lateral tail vein. 4 hours later, the mice were imaged using IVIS (in-vivo imaging system) (PerkinElmer, USA) and the images were analyzed with the Living Image software (PerkinElmer) (FIGS. 54 and 55). The cell-penetrating peptides were used after labeling with FAM.

helicity ([θ]222/[θ]208) [1]: ≥ 0.7
helicity ([θ]222/[θ]208) ([1]; listed as Example 20): 0.706
in-vivo targeting site (BALB/c nude mice): target the ear
Compound: C[C@H](NC(=O)[C@H](CCC(N)=O)NC(=O)C(C)(C)NC(=O)CNC(=O)C(C)(C)NC(=O)[C@H](CC(N)=O)NC(=O)[C@H](CCCNC(=N)N)NC(=O)[C@H](CCCNC(=N)N)NC(=O)[C@H](C)NC(=O)[C@H](CCC(N)=O)NC(=O)C(C)(C)NC(=O)[C@H](C)NC(=O)C(C)(C)NC(=O)[C@H](CC(N)=O)NC(=O)[C@H](CCCNC(=N)N)NC(=O)[C@H](CCCNC(=N)N)NC(=O)[C@H](C)NC(=O)[C@H](CCC(N)=O)NC(=O)C(C)(C)NC(=O)[C@H](C)NC(=O)C(C)(C)NC(=O)[C@H](CC(N)=O)NC(=O)[C@H](CCCNC(=N)N)NC(=O)[C@H](CCCNC(=N)N)NC(=O)[C@H](C)NC(=O)[C@H](CCC(N)=O)NC(=O)C(C)(C)NC(=O)[C@H](C)NC(=O)C(C)(C)N)C(=O)N[C@@H](CCCNC(=N)N)C(=O)N[C@@H](CCCNC(=N)N)C(=O)N[C@@H](CC(N)=O)C(=O)NC(C)(C)C(=O)N[C@@H](C)C(=O)NC(C)(C)C(N)=O [CPP19] (HELM PEPTIDE1{[Aib].A.[Aib].Q.A.R.R.N.[Aib].A.[Aib].Q.A.R.R.N.[Aib].A.[Aib].Q.A.R.R.N.[Aib].G.[Aib].Q.A.R.R.N.[Aib].A.[Aib].[am]}$$$$V2.0; N-terminus assumed)

Compound: UAUNRARQUAUNRARQUAUNRARQUAUNRARQUAU ([Aib]A[Aib]NRARQ[Aib]A[Aib]NRARQ[Aib]A[Aib]NRARQ[Aib]A[Aib]NRARQ[Aib]A[Aib]-NH2) [CPP17]
helicity ([θ]222/[θ]208) [1]: 0.78

helicity ([θ]222/[θ]208) ([1]; listed as Example 21): 0.565
in-vivo targeting site (BALB/c nude mice): target the ear
Compound: C[C@H](NC(=O)[C@H](CCC(N)=O)NC(=O)C(C)(C)NC(=O)CNC(=O)C(C)(C)NC(=O)[C@H](CC(N)=O)NC(=O)[C@H](CCCNC(=N)N)NC(=O)[C@H](CCCNC(=N)N)NC(=O)[C@H](C)NC(=O)[C@H](CCC(N)=O)NC(=O)C(C)(C)NC(=O)[C@H](C)NC(=O)C(C)(C)NC(=O)[C@H](CC(N)=O)NC(=O)[C@H](CCCNC(=N)N)NC(=O)[C@H](CCCNC(=N)N)NC(=O)[C@H](C)NC(=O)[C@H](CCC(N)=O)NC(=O)C(C)(C)NC(=O)[C@H](C)NC(=O)C(C)(C)N)C(=O)N[C@@H](CCCNC(=N)N)C(=O)N[C@@H](CCCNC(=N)N)C(=O)N[C@@H](CC(N)=O)C(=O)NC(C)(C)C(=O)NCC(=O)NC(C)(C)C(=O)N[C@@H](CCC(N)=O)C(=O)N[C@@H](C)C(=O)N[C@@H](CCCNC(=N)N)C(=O)N[C@@H](CCCNC(=N)N)C(=O)N[C@@H](CC(N)=O)C(=O)NC(C)(C)C(=O)N[C@@H](C)C(=O)NC(C)(C)C(N)=O [CPP20] (HELM PEPTIDE1{[Aib].A.[Aib].Q.A.R.R.N.[Aib].A.[Aib].Q.A.R.R.N.[Aib].G.[Aib].Q.A.R.R.N.[Aib].G.[Aib].Q.A.R.R.N.[Aib].A.[Aib].[am]}$$$$V2.0; N-terminus assumed)
accumulation efficiency in the ear (BALB/c nude mice; among CPP19 to 21): much superior accumulation efficiency in the ear

Compound: UAUQRARNUAUQRARNUAUQRARNUAUQRARNUAU ([Aib]A[Aib]QRARN[Aib]A[Aib]QRARN[Aib]A[Aib]QRARN[Aib]A[Aib]QRARN[Aib]A[Aib]-NH2; not fully specified) [CPP14]
helicity ([θ]222/[θ]208) [1]: 0.81

helicity ([θ]222/[θ]208) ([1]; listed as Example 22): 0.500
in-vivo targeting site (BALB/c nude mice): target the ear
Compound: C[C@H](NC(=O)[C@H](CCC(N)=O)NC(=O)C(C)(C)NC(=O)CNC(=O)C(C)(C)NC(=O)[C@H](CC(N)=O)NC(=O)[C@H](CCCNC(=N)N)NC(=O)[C@H](CCCNC(=N)N)NC(=O)[C@H](C)NC(=O)[C@H](CCC(N)=O)NC(=O)C(C)(C)NC(=O)CNC(=O)C(C)(C)NC(=O)[C@H](CC(N)=O)NC(=O)[C@H](CCCNC(=N)N)NC(=O)[C@H](CCCNC(=N)N)NC(=O)[C@H](C)NC(=O)[C@H](CCC(N)=O)NC(=O)C(C)(C)NC(=O)[C@H](C)NC(=O)C(C)(C)N)C(=O)N[C@@H](CCCNC(=N)N)C(=O)N[C@@H](CCCNC(=N)N)C(=O)N[C@@H](CC(N)=O)C(=O)NC(C)(C)C(=O)NCC(=O)NC(C)(C)C(=O)N[C@@H](CCC(N)=O)C(=O)N[C@@H](C)C(=O)N[C@@H](CCCNC(=N)N)C(=O)N[C@@H](CCCNC(=N)N)C(=O)N[C@@H](CC(N)=O)C(=O)NC(C)(C)C(=O)N[C@@H](C)C(=O)NC(C)(C)C(N)=O [CPP21] (HELM PEPTIDE1{[Aib].A.[Aib].Q.A.R.R.N.[Aib].G.[Aib].Q.A.R.R.N.[Aib].G.[Aib].Q.A.R.R.N.[Aib].G.[Aib].Q.A.R.R.N.[Aib].A.[Aib].[am]}$$$$V2.0; N-terminus assumed)

Compound: QARRNQARRNQARRNQARRNQARRN [CPP7]
secondary structure / helix stabilization by CD [1]: mostly in random coil state

Compound: UAUNARRQUAUNARRQUAUNARRQUAUNARRQUAU ([Aib]A[Aib]NARRQ[Aib]A[Aib]NARRQ[Aib]A[Aib]NARRQ[Aib]A[Aib]NARRQ[Aib]A[Aib]-NH2) [CPP18]
helicity ([θ]222/[θ]208) [1]: 0.72

Compound: UAURQARRNUAURQARRNUAURQARRNUAURQARRNUAU ([Aib]A[Aib]RQARRN[Aib]A[Aib]RQARRN[Aib]A[Aib]RQARRN[Aib]A[Aib]RQARRN[Aib]A[Aib]; not fully specified (C-terminus)) [CPP5]
secondary structure / helix stabilization by CD [1]: helical structure was somewhat stabilized

Compound: UAUNRRAQUAUNRRAQUAUNRRAQUAUNRRAQUAU ([Aib]A[Aib]NRRAQ[Aib]A[Aib]NRRAQ[Aib]A[Aib]NRRAQ[Aib]A[Aib]NRRAQ[Aib]A[Aib]-NH2) [CPP16]
helicity ([θ]222/[θ]208) [1]: 0.66

Compound: TRQARRNRRRRWRERQR [Rev ARM, reference compound]
bioaccumulation (BALB/c nude mice): did not show significant bioaccumulation
targeting activity in the body (BALB/c nude mice): did not show targeting activity for specific sites in the body

Compound: QARRNQARRNQARRNQARRN [CPP6]
secondary structure / helix stabilization by CD [1]: mostly in random coil state

Compound: AUAUARQARRNRQARRNRQARRNAUAUA (A[Aib]A[Aib]ARQARRNRQARRNRQARRNA[Aib]A[Aib]A; not fully specified (C-terminus)) [CPP4]
secondary structure / helix stabilization by CD [1]: helical structure was somewhat stabilized

Compound: N=C(N)NCCC[C@H](NC(=O)[C@H](CCCNC(=N)N)NC(=O)[C@H](CCCNC(=N)N)NC(=O)[C@H](CCC(N)=O)NC(=O)[C@H](CCCNC(=N)N)NC(=O)[C@H](CCCNC(=N)N)NC(=O)[C@H](CCCCN)NC(=O)[C@H](CCCCN)NC(=O)[C@H](CCCNC(=N)N)NC(=O)CNC(=O)[C@@H](N)Cc1ccc(O)cc1)C(N)=O [Tat, Tyr-Gly-Arg-Lys-Lys-Arg-Arg-Gln-Arg-Arg-Arg, reference compound]
bioaccumulation (BALB/c nude mice): did not show significant bioaccumulation
targeting activity in the body (BALB/c nude mice): did not show targeting activity for specific sites in the body

Compound: UAUQRRANUAUQRRANUAUQRRANUAUQRRANUAU ([Aib]A[Aib]QRRAN[Aib]A[Aib]QRRAN[Aib]A[Aib]QRRAN[Aib]A[Aib]QRRAN[Aib]A[Aib]-NH2; not fully specified) [CPP15]
helicity ([θ]222/[θ]208) [1]: 0.66

Compound: RRRRRRRR [R8, reference compound]
bioaccumulation (BALB/c nude mice): did not show significant bioaccumulation
targeting activity in the body (BALB/c nude mice): did not show targeting activity for specific sites in the body

Compound: UAUQARRNUAUQARRNUAUQARRNUAUQARRNUAUQARRNUAU ([Aib]A[Aib]QARRN[Aib]A[Aib]QARRN[Aib]A[Aib]QARRN[Aib]A[Aib]QARRN[Aib]A[Aib]QARRN[Aib]A[Aib]; not fully specified) [CPP13]
secondary structure / helix stabilization by CD [1]: not further increased
